# Source: patent US12660820B2, “Heterocyclic compound and harmful arthropod-controlling composition including same” (SUMITOMO CHEMICAL COMPANY, LIMITED, priority 2020, dated 2026)
# System: cotton aphids (Aphis gossypii)
# Assay: Test Method 9: foliar spray on cucumber seedling infested with cotton aphids (Formulation Example 5)
# Format: in vivo
# Conditions: Test Example 9-1; 200 ppm; 5 days after spraying
# Method: Cucumber (Cucumis sativus) seedling (on the developmental stage of the second true leaf) is planted in a container and approximately 30 cotton aphids (Aphis gossypii) (all developmental stages of life) are released onto the leaves of the cucumber. After 1 day, the diluted solutions are sprayed to the seedling at a ratio of 10 mL/seedling. Further, after 5 days, the number of the surviving insects is examined and the controlling value is calculated by the following equation. Controlling value (%)={1−(Cb×Tai)/(Cai×Tb)}×100 wherein the symbols in the formula represent the following descriptions. • Cb: Number of the test insects in untreated group; • Cai: Number of the surviving insects at the time of the investigation in untreated group; • Tb: Number of the test insects in treated group; • Tai: Number of the surviving insects at the time of the investigation in treated group; Here the “untreated group” represents a group where the similar treatment procedure to that of the treated group except not using the test compound is done.
compound,measurement,value
CCS(=O)(=O)c1c(-c2cnc3cc(C(F)(F)F)ccn3c2=O)nc2cc(C(F)(F)F)ccn12 [compound 6],Controlling value,≥ 90%
